From patent publication EP3492067A1, “TYPE-17 COLLAGEN PRODUCTION PROMOTER” (Tomoike Industrial (H.K.) Limited, priority 2016, dated 2018)
≈ marks a conversion by molar mass, not a printed value.

Legend:
physchem = details: distilled water
Method: (§1) A test for confirming water solubility of the pterostilbene glycoside described above was performed. More specifically, solubility in 100 ml of distilled water at room temperature was measured. Pterostilbene (aglycone) was used as a control.

Type-17 collagen [1] = test: Western blotting of Type-17 collagen protein production in skin model cells; details: Homo sapiens, 168 h, read-out: expression amount of Type-17 collagen, increase in comparison with the control
Method: (§2) A tissue containing DMSO was prepared as a control.
(§3) The lysates of cultured tissue were subjected to western blotting using an anti-Type-17 collagen antibody (ab95123, Abcam).

[2] = Water solubility test in distilled water
Method: as §1

Type-17 collagen [3] = details: eft-400 skin model
Method: as §2, §3

solubility (physchem)	amount of Type-17 collagen contained in skin model cells, increase compared with the control (Ctrl) (Type-17 collagen [3])	Structure (SMILES)	fold induction at 25 µM (Type-17 collagen [1])	fold induction at 50 µM (Type-17 collagen [1])	solubility [2]
~60 µg/mL (≈ 143 µM)		COc1cc(/C=C/c2ccc(O[C@@H]3O[C@H](CO)[C@@H](O)[C@H](O)[C@H]3O)cc2)cc(OC)c1 [pterostilbene monoglycoside]	~1.4	~1.6	
		COc1cc(/C=C/c2ccc(O)cc2)cc(OC)c1 [pterostilbene, Pterostilbene]	~1.1	~1.4	~5 µg/mL (≈ 19.5 µM)
~300000 µg/mL (≈ 404000 µM)	1.6 times	COc1cc(/C=C/c2ccc(O[C@@H]3O[C@H](CO)[C@@H](O[C@H]4O[C@H](CO)[C@@H](O[C@H]5O[C@H](CO)[C@@H](O)[C@H](O)[C@H]5O)[C@H](O)[C@H]4O)[C@H](O)[C@H]3O)cc2)cc(OC)c1 [pterostilbene triglycoside]			
~13 µg/mL (≈ 22.4 µM)	1.2 times	COc1cc(/C=C/c2ccc(O[C@@H]3O[C@H](CO)[C@@H](O[C@H]4O[C@H](CO)[C@@H](O)[C@H](O)[C@H]4O)[C@H](O)[C@H]3O)cc2)cc(OC)c1 [pterostilbene diglycoside]			
